Source: patent US6355799B1, “Substituted benzene compounds, process for their preparation, and herbicidal and defoliant compositions containing them” (ISK Americas Incorporated, priority 1997, dated 2002)

Tests used:
Type in all cases: in vivo
[1] = tested on: redroot pigweed (Amaranthus retroflexus, AMARE); test: Pre-emerge test, greenhouse herbicide activity screening; settings: pre-emerge, rated 14 days after application, 0 = no damage, 100 = complete death
Outline: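 Plants grown in 10 cm pots of sandy loam mix received acetone-dissolved compounds through a moving flat-fan nozzle. Doses ranged from 15 to 1000 g ai/ha. Pre-emerge pots were seeded one day earlier, post-emerge pots 8–21 days earlier. Fourteen days on, each pot was graded 0–100 for damage.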

[2] = tested on: barnyardgrass (Echinochloa crus-galli, ECHCG); test: as above; settings: pre-emerge, rated 14 days after application, 0 = no damage, 100 = complete death
Outline: (§1)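 Herbicidal damage is scored 0 (none) to 100 (complete plant death) two weeks after a simulated field spray. Rates span 15–1000 g ai/ha, delivered in acetone at 187 l/ha. For post-emergence treatments, plants have 2–3 leaves and the spray carries 0.25% v/v non-ionic surfactant.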

[3] = tested on: green foxtail (Setaria viridis, SETVI); test: as above; settings: pre-emerge, rated 14 days after application, 0 = no damage, 100 = complete death
Outline: as §1

[4] = tested on: ivyleaf morningglory (Ipomoea hederacea, IPOHE); test: as above; settings: pre-emerge, rated 14 days after application, 0 = no damage, 100 = complete death
Outline: as §1

[5] = tested on: johnsongrass (Sorghum halepense, SORHA); test: as above; settings: pre-emerge, rated 14 days after application, 0 = no damage, 100 = complete death
Outline: as §1

[6] = tested on: lambsquarters (Chenopodium album, CHEAL); test: as above; settings: pre-emerge, rated 14 days after application, 0 = no damage, 100 = complete death
Outline: as §1

[7] = tested on: large crabgrass (Digitaria sanguinalis, DIGSA); test: as above; settings: pre-emerge, rated 14 days after application, 0 = no damage, 100 = complete death
Outline: as §1

[8] = tested on: sicklepod (Cassia obtusifolia, CASOB); test: as above; settings: pre-emerge, rated 14 days after application, 0 = no damage, 100 = complete death
Outline: as §1

[9] = tested on: velvetleaf (Abutilon theophrasti, ABUTH); test: as above; settings: pre-emerge, rated 14 days after application, 0 = no damage, 100 = complete death
Outline: as §1

[10] = tested on: field corn (Zea mays L., var. Dekalb 535, CORN); test: Pre-emerge test, crop safety; settings: pre-emerge, rated 14 days after application, 0 = no damage, 100 = complete death
Outline: (§2)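 Compounds in acetone were track-sprayed at 187 l/ha, 15–1000 g ai/ha, onto sandy loam pots. Pre-emerge seeds were sown one day before spraying, with surface watering afterwards. Post-emerge plants were at the 2–3 leaf stage and sprayed with 0.25% v/v non-ionic surfactant. Injury was rated 0–100 at 14 days.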

[11] = tested on: upland rice (Oryza sp., var. Tebonnet, RICE); test: Pre-emerge test, crop safety; settings: pre-emerge, rated 14 days after application, 0 = no damage, 100 = complete death
Outline: as §2

[12] = tested on: barnyardgrass (Echinochloa crus-galli, ECHCG); test: Post-emerge test, greenhouse herbicide activity screening; settings: phytotoxicity rating 0-100 (0 no damage, 100 complete death), 14 days after application
Outline: (§3)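 Applied at 15–1000 g ai/ha from acetone in 187 l/ha spray volume. Post-emergence applications included 0.25% v/v non-ionic surfactant and reached plants sown 8–21 days before. Pre-emergence applications were incorporated by surface watering. Efficacy or crop damage was rated on a 0–100 scale after 14 days.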

[13] = tested on: green foxtail (Setaria viridis, SETVI); test: as above; settings: phytotoxicity rating 0-100 (0 no damage, 100 complete death), 14 days after application
Outline: as §3

[14] = tested on: ivyleaf morningglory (Ipomoea hederacea, IPOHE); test: as above; settings: phytotoxicity rating 0-100 (0 no damage, 100 complete death), 14 days after application
Outline: as §3

[15] = tested on: johnsongrass (Sorghum halepense, SORHA); test: as above; settings: phytotoxicity rating 0-100 (0 no damage, 100 complete death), 14 days after application
Outline: as §3

[16] = tested on: lambsquarters (Chenopodium album, CHEAL); test: as above; settings: phytotoxicity rating 0-100 (0 no damage, 100 complete death), 14 days after application
Outline: as §3

[17] = tested on: large crabgrass (Digitaria sanguinalis, DIGSA); test: as above; settings: phytotoxicity rating 0-100 (0 no damage, 100 complete death), 14 days after application
Outline: as §3

[18] = tested on: redroot pigweed (Amaranthus retroflexus, AMARE); test: as above; settings: phytotoxicity rating 0-100 (0 no damage, 100 complete death), 14 days after application
Outline: as §3

[19] = tested on: sicklepod (Cassia obtusifolia, CASOB); test: as above; settings: phytotoxicity rating 0-100 (0 no damage, 100 complete death), 14 days after application
Outline: as §3

[20] = tested on: velvetleaf (Abutilon theophrasti, ABUTH); test: as above; settings: phytotoxicity rating 0-100 (0 no damage, 100 complete death), 14 days after application
Outline: as §3

[21] = tested on: field corn (Zea mays L., var. Dekalb 535, CORN); test: Post-emerge test, crop safety; settings: phytotoxicity rating 0-100 (0 no damage, 100 complete death), 14 days after application
Outline: as §1

[22] = tested on: upland rice (Oryza sp., var. Tebonnet, RICE); test: Post-emerge test, crop safety; settings: phytotoxicity rating 0-100 (0 no damage, 100 complete death), 14 days after application
Outline: as §1

SMILES: Cn1c(C(F)(F)F)cc(=O)n(-c2c(F)cc(Cl)c(OCC#N)c2N)c1=O [Compound 1-18]
- Pre-emerge Herbicidal Activity AMARE (phytotoxicity rating, scale 0-100) ([1]; 63 g ai/ha): 100
- Pre-emerge Herbicidal Activity AMARE (phytotoxicity rating, scale 0-100) ([1]; 250 g ai/ha): 100
- Pre-emerge Herbicidal Activity ECHCG (phytotoxicity rating, scale 0-100) ([2]; 63 g ai/ha): 0
- Pre-emerge Herbicidal Activity ECHCG (phytotoxicity rating, scale 0-100) ([2]; 250 g ai/ha): 80
- Pre-emerge Herbicidal Activity SETVI (phytotoxicity rating, scale 0-100) ([3]; 63 g ai/ha): 95
- Pre-emerge Herbicidal Activity SETVI (phytotoxicity rating, scale 0-100) ([3]; 250 g ai/ha): 99
- Pre-emerge Herbicidal Activity IPOHE (phytotoxicity rating, scale 0-100) ([4]; 63 g ai/ha): 100
- Pre-emerge Herbicidal Activity IPOHE (phytotoxicity rating, scale 0-100) ([4]; 250 g ai/ha): 100
- Pre-emerge Herbicidal Activity SORHA (phytotoxicity rating, scale 0-100) ([5]; 63 g ai/ha): 70
- Pre-emerge Herbicidal Activity SORHA (phytotoxicity rating, scale 0-100) ([5]; 250 g ai/ha): 100
- Pre-emerge Herbicidal Activity CHEAL (phytotoxicity rating, scale 0-100) ([6]; 63 g ai/ha): 100
- Pre-emerge Herbicidal Activity CHEAL (phytotoxicity rating, scale 0-100) ([6]; 250 g ai/ha): 100
- Pre-emerge Herbicidal Activity DIGSA (phytotoxicity rating, scale 0-100) ([7]; 63 g ai/ha): 70
- Pre-emerge Herbicidal Activity DIGSA (phytotoxicity rating, scale 0-100) ([7]; 250 g ai/ha): 90
- Pre-emerge Herbicidal Activity CASOB (phytotoxicity rating, scale 0-100) ([8]; 63 g ai/ha): 70
- Pre-emerge Herbicidal Activity CASOB (phytotoxicity rating, scale 0-100) ([8]; 250 g ai/ha): 100
- Pre-emerge Herbicidal Activity ABUTH (phytotoxicity rating, scale 0-100) ([9]; 63 g ai/ha): 100
- Pre-emerge Herbicidal Activity ABUTH (phytotoxicity rating, scale 0-100) ([9]; 250 g ai/ha): 100
- Pre-emerge crop damage CORN (phytotoxicity rating, scale 0-100) ([10]; 63 g ai/ha): 40
- Pre-emerge crop damage CORN (phytotoxicity rating, scale 0-100) ([10]; 250 g ai/ha): 90
- Pre-emerge crop damage RICE (phytotoxicity rating, scale 0-100) ([11]; 63 g ai/ha): 30
- Pre-emerge crop damage RICE (phytotoxicity rating, scale 0-100) ([11]; 250 g ai/ha): 70
- Post-emerge Herbicidal Activity ECHCG ([12]; 63 g ai/ha): 0
- Post-emerge Herbicidal Activity ECHCG ([12]; 250 g ai/ha): 0
- Post-emerge Herbicidal Activity SETVI ([13]; 63 g ai/ha): 70
- Post-emerge Herbicidal Activity SETVI ([13]; 250 g ai/ha): 70
- Post-emerge Herbicidal Activity IPOHE ([14]; 63 g ai/ha): 80
- Post-emerge Herbicidal Activity IPOHE ([14]; 250 g ai/ha): 100
- Post-emerge Herbicidal Activity SORHA ([15]; 63 g ai/ha): 50
- Post-emerge Herbicidal Activity SORHA ([15]; 250 g ai/ha): 50
- Post-emerge Herbicidal Activity CHEAL ([16]; 63 g ai/ha): 70
- Post-emerge Herbicidal Activity CHEAL ([16]; 250 g ai/ha): 100
- Post-emerge Herbicidal Activity DIGSA ([17]; 63 g ai/ha): 50
- Post-emerge Herbicidal Activity DIGSA ([17]; 250 g ai/ha): 50
- Post-emerge Herbicidal Activity AMARE ([18]; 63 g ai/ha): 70
- Post-emerge Herbicidal Activity AMARE ([18]; 250 g ai/ha): 100
- Post-emerge Herbicidal Activity CASOB ([19]; 63 g ai/ha): 30
- Post-emerge Herbicidal Activity CASOB ([19]; 250 g ai/ha): 95
- Post-emerge Herbicidal Activity ABUTH ([20]; 63 g ai/ha): 100
- Post-emerge Herbicidal Activity ABUTH ([20]; 250 g ai/ha): 100
- Post-emerge Herbicidal Activity CORN (crop damage) ([21]; 63 g ai/ha): 0
- Post-emerge Herbicidal Activity CORN (crop damage) ([21]; 250 g ai/ha): 0
- Post-emerge Herbicidal Activity RICE (crop damage) ([22]; 63 g ai/ha): 0
- Post-emerge Herbicidal Activity RICE (crop damage) ([22]; 250 g ai/ha): 0
